Experiments:
Type in all cases: cell-based, human
22RV1 cells = assay: Cell viability (AlamarBlue), 22RV1 prostate cancer cells; set-up: key to EC50 (μM) in 22RV1 cells: Inactive: less than 50% inhibition at the highest concentration tested at 50 μM; settings: 72 hours of treatment; for EC50: Homo sapiens, 22Rv1, 72 h
Protocol: (§1) In another exemplary method, half maximal effective concentration (EC50) was determined for some compounds and their isomers as disclosed herein in a variety of human cancer cell lines. In brief, cells from two prostate cancer cell lines (LNCaP, 22RV1), one glioblastoma cell line (U87), one breast cancer cell line (MCF7), a glioma cell line (LN18), a normal prostate cell line (RWPE1), and a glioblastoma cell line (T98G) were plated in a multi-well plate. After 24 hours, one of the compounds herein was added to the well at increasing concentrations. After 72 hours of treatment, cell viability was assessed using AlamrBlue® (Invitrogen) and fluorescence was read using the CLARIOstar Plus Multilabel Plate Reader (BMG Labtech). Samples were normalized to no treatment controls. EC50 values were determined using GraphPad Prism.

U87 cells = assay: Cell viability (AlamarBlue), U87 glioblastoma cells; set-up: key to EC50 (μM) in U87 cells: Inactive: less than 50% inhibition at the highest concentration tested at 50 μM; settings: 72 hours of treatment; for EC50: Homo sapiens, U-87 MG, 72 h
Protocol: as §1

LNCaP cells = assay: Cell viability (AlamarBlue), LNCaP prostate cancer cells; set-up: key to EC50 (μM) in LNCaP cells: Inactive: less than 50% inhibition at the highest concentration tested at 50 μM; settings: 72 hours of treatment; for EC50: Homo sapiens, LNCaP, 72 h
Protocol: as §1

SMILES	EC50 (μM) in 22RV1 cells (22RV1 cells)	EC50 (μM) in U87 cells (U87 cells)	EC50 (μM) in LNCaP cells (LNCaP cells)	EC50 (22RV1 cells) [µM]	EC50 (U87 cells) [µM]	EC50 (LNCaP cells) [µM]
Cc1cc(NC(=O)NC(=O)C2CCC(OCC3CC3)CC2)ccc1Oc1ncc(Cl)cn1 (stereo not drawn) [Compound 38, N-((4-((5-chloropyrimidin-2-yl)oxy)-3-methylphenyl)carbamoyl)-4-(cyclopropylmethoxy)cyclohexane-1-carboxamide]	Inactive	Inactive	Inactive	–	–	–
Cc1cc(NC(=O)NC(=O)C2CC(OCC3CC3)C2)ccc1Oc1nccs1 (stereo not drawn) [Compound 39, 3-(cyclopropylmethoxy)-N-((3-methyl-4-(thiazol-2-yloxy)phenyl)carbamoyl)cyclobutane-1-carboxamide]	Inactive	Inactive	Inactive	–	–	–
Cc1cc(NC(=O)NC(=O)C2CC(OCC3CC3)C2)ccc1Oc1ccc(Cl)cn1 (stereo not drawn) [Compound 40, N-((4-((5-chloropyridin-2-yl)oxy)-3-methylphenyl)carbamoyl)-3-(cyclopropylmethoxy)cyclobutane-1-carboxamide]	Inactive	Inactive	Inactive	–	–	–
Cc1cc(NC(=O)NC(=O)C2CC(OCC3CC3)C2)ccc1Oc1ncc(Cl)cn1 (stereo not drawn) [Compound 41, N-((4-((5-chloropyrimidin-2-yl)oxy)-3-methylphenyl)carbamoyl)-3-(cyclopropylmethoxy)cyclobutane-1-carboxamide]	–	–	Inactive	46	49	–
COC1CCC(C(=O)NC(=O)Nc2ccc(Oc3cncnc3)c(C)c2)CC1 (stereo not drawn) [Compound 42, 4-methoxy-N-((3-methyl-4-(pyrimidin-5-yloxy)phenyl)carbamoyl)cyclohexane-1-carboxamide]	–	–	–	37	41.5	19.8
COC1CC(C(=O)NC(=O)Nc2ccc(Oc3cncnc3)c(C)c2)C1 (stereo not drawn) [Compound 43, 3-methoxy-N-((3-methyl-4-(pyrimidin-5-yloxy)phenyl)carbamoyl)cyclobutane-1-carboxamide]	–	–	–	39	34	21.8
COCCOC1CCC(C(=O)NC(=O)Nc2ccc(Oc3ncc(Cl)cn3)c(C)c2)CC1 (stereo not drawn) [Compound 50, N-((4-((5-chloropyrimidin-2-yl)oxy)-3-methylphenyl)carbamoyl)-4-(2-methoxyethoxy)cyclohexanecarboxamide]	Inactive	Inactive	Inactive	–	–	–
COC1CCC(C(=O)NC(=O)Nc2ccc(Oc3cnc(N4CC5(COC5)C4)nc3)c(C)c2)CC1 (stereo not drawn) [Compound 51, N-((4-((2-(2-oxa-6-azaspiro[3.3]heptan-6-yl)pyrimidin-5-yl)oxy)-3-methylphenyl)carbamoyl)-4-methoxycyclohexanecarboxamide]	–	–	–	20	29	11.1
COC1CC(C(=O)NC(=O)Nc2ccc(Oc3cnc(N4CC5(COC5)C4)nc3)c(C)c2)C1 (stereo not drawn) [Compound 52, -((4-((2-(2-oxa-6-azaspiro[3.3]heptan-6-yl)pyrimidin-5-yl)oxy)-3-methylphenyl)carbamoyl)-3-methoxycyclobutanecarboxamide]	–	Inactive	–	36	–	25.3
Cc1cc(NC(=O)NC(=O)C2CCC(O)CC2)ccc1Oc1ncc(Cl)cn1 (stereo not drawn) [Compound 53, N-((4-((5-chloropyrimidin-2-yl)oxy)-3-methylphenyl)carbamoyl)-4-hydroxycyclohexane-1-carboxamide]	Inactive	Inactive	Inactive	–	–	–
